From the supplement of paper PMC12137928
Structures can show the parent of a compound that is named as a salt.

Tested on: HCT116
Settings: 72 h
Procedure, shortened: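 In 1536-well plates, 250 HCT116 cells per well were seeded and left for 5 h to attach. Luminescence from CellTiter-Glo was set against vehicle (0%) and positive control (-100%), and pattern correction was applied. IC50 and maximal efficacy come from four-parameter Hill fitting.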

`C/C(=C(\CCOP(=O)(O)O)SC(=O)c1ccccc1)N(C=O)Cc1cnc(C)nc1N` [Benfotiamine] was tested, and the IC50 cell viability (ICRF193 0 nM) was > 45.8 µM and the IC50 cell viability (ICRF193 200 nM) was > 45.8 µM.

With `CC(=O)Nc1ccc(OC(=O)c2ccccc2OC(C)=O)cc1` [Benorylate] the IC50 cell viability (ICRF193 0 nM) was > 45.8 µM and the IC50 cell viability (ICRF193 200 nM) was > 45.8 µM.

With `CCCCOc1cc(C(=O)OCCN(CC)CC)ccc1N` [Benoxinate hydrochloride] the IC50 cell viability (ICRF193 0 nM) was > 45.8 µM and the IC50 cell viability (ICRF193 200 nM) was > 45.8 µM.

With `O=C(CCCN1CCC(n2c(=O)[nH]c3ccccc32)CC1)c1ccc(F)cc1` [Benperidol] the IC50 cell viability (ICRF193 0 nM) was > 45.8 µM and the IC50 cell viability (ICRF193 200 nM) was > 45.8 µM.

`NC(CO)C(=O)NNCc1ccc(O)c(O)c1O` (centres undefined) [Benserazide] was tested, and the IC50 cell viability (ICRF193 0 nM) was > 45.8 µM and the IC50 cell viability (ICRF193 200 nM) was > 45.8 µM.

In the case of `O=C(O)c1ccc(NC(=O)[C@H](Cc2ccc(O)cc2)NC(=O)c2ccccc2)cc1` [Bentiromide sodium], the IC50 cell viability (ICRF193 0 nM) is reported as > 45.8 µM and the IC50 cell viability (ICRF193 200 nM) is reported as > 45.8 µM.

`CC[N+](C)(CC)CCOC(=O)C(O)(c1ccccc1)c1ccccc1` [Benzactyzine methobromide] was tested, and the IC50 cell viability (ICRF193 0 nM) was > 45.8 µM and the IC50 cell viability (ICRF193 200 nM) was > 45.8 µM.

In the case of `CCc1oc2ccccc2c1C(=O)c1cc(Br)c(O)c(Br)c1` [Benzbromarone], the IC50 cell viability (ICRF193 0 nM) is reported as > 45.8 µM and the IC50 cell viability (ICRF193 200 nM) is reported as > 45.8 µM.

In the case of `O=S(=O)(O)c1ccccc1` [Benzene sulfonic acid], the IC50 cell viability (ICRF193 0 nM) is reported as > 45.8 µM and the IC50 cell viability (ICRF193 200 nM) is reported as > 45.8 µM.

For `O=C(Cn1ccnc1[N+](=O)[O-])NCc1ccccc1` [Benznidazole], the IC50 cell viability (ICRF193 0 nM) was > 45.8 µM and the IC50 cell viability (ICRF193 200 nM) was > 45.8 µM.

`CCOC(=O)c1ccc(N)cc1` [Benzocaine] was tested, and the IC50 cell viability (ICRF193 0 nM) was > 45.8 µM and the IC50 cell viability (ICRF193 200 nM) was > 45.8 µM.

`O=C(c1ccccc1)C(O)c1ccccc1` (centres undefined) [Benzoin] was tested, and the IC50 cell viability (ICRF193 0 nM) was > 45.8 µM and the IC50 cell viability (ICRF193 200 nM) was > 45.8 µM.

In the case of `CCCCNc1ccc(C(=O)OCCOCCOCCOCCOCCOCCOCCOCCOCCOC)cc1` [Benzonatate], the IC50 cell viability (ICRF193 0 nM) is reported as > 45.8 µM and the IC50 cell viability (ICRF193 200 nM) is reported as > 45.8 µM.

`c1ccc2scnc2c1` [Benzothiazole] was tested, and the IC50 cell viability (ICRF193 0 nM) was > 45.8 µM and the IC50 cell viability (ICRF193 200 nM) was > 45.8 µM.

`O=C(OOC(=O)c1ccccc1)c1ccccc1` [Benzoyl peroxide] was tested, and the IC50 cell viability (ICRF193 0 nM) was > 45.8 µM and the IC50 cell viability (ICRF193 200 nM) was > 45.8 µM.

`CN1[C@H]2CC[C@@H]1[C@@H](C(=O)O)[C@@H](OC(=O)c1ccccc1)C2` [Benzoylecgonine] was tested, and the IC50 cell viability (ICRF193 0 nM) was > 45.8 µM and the IC50 cell viability (ICRF193 200 nM) was > 45.8 µM.

`CCN(CC)C(=O)C1CN2CCc3cc(OC)c(OC)cc3C2CC1OC(C)=O` (centres undefined) [Benzquinamide] was tested, and the IC50 cell viability (ICRF193 0 nM) was > 45.8 µM and the IC50 cell viability (ICRF193 200 nM) was > 45.8 µM.

In the case of `CN1[C@@H]2CC[C@H]1C[C@@H](OC(c1ccccc1)c1ccccc1)C2` [Benztropine mesylate], the IC50 cell viability (ICRF193 0 nM) is reported as > 45.8 µM and the IC50 cell viability (ICRF193 200 nM) is reported as > 45.8 µM.

With `CN(C)CCCOc1nn(Cc2ccccc2)c2ccccc12` [Benzydamine hydrochloride] the IC50 cell viability (ICRF193 0 nM) was > 45.8 µM and the IC50 cell viability (ICRF193 200 nM) was > 45.8 µM.

In the case of `OCc1ccccc1` [Benzyl alcohol], the IC50 cell viability (ICRF193 0 nM) is reported as > 45.8 µM and the IC50 cell viability (ICRF193 200 nM) is reported as > 45.8 µM.

For `O=C(OCc1ccccc1)c1ccccc1` [Benzyl benzoate], the IC50 cell viability (ICRF193 0 nM) was > 45.8 µM and the IC50 cell viability (ICRF193 200 nM) was > 45.8 µM.

`O=C(/C=C/c1ccccc1)OCc1ccccc1` [Benzyl cinnamate] was tested, and the IC50 cell viability (ICRF193 0 nM) was > 45.8 µM and the IC50 cell viability (ICRF193 200 nM) was > 45.8 µM.

For `NS(=O)(=O)c1cc2c(cc1Cl)NC(Cc1ccccc1)NS2(=O)=O` (centres undefined) [Benzylhydrochlorothiazide], the IC50 cell viability (ICRF193 0 nM) was > 45.8 µM and the IC50 cell viability (ICRF193 200 nM) was > 45.8 µM.

`O=C(OCc1ccccc1)c1ccc(O)cc1` [Benzylparaben] was tested, and the IC50 cell viability (ICRF193 0 nM) was > 45.8 µM and the IC50 cell viability (ICRF193 200 nM) was > 45.8 µM.

For `O=C(O)CCCN1CCC(O[C@@H](c2ccc(Cl)cc2)c2ccccn2)CC1` [Bepotastine (Beslilate)], the IC50 cell viability (ICRF193 0 nM) was > 45.8 µM and the IC50 cell viability (ICRF193 200 nM) was > 45.8 µM.

With `COc1c(O)cc2c(c1O)[C@@H]1O[C@H](CO)[C@@H](O)[C@H](O)[C@H]1OC2=O` [Bergenin monohydrate] the IC50 cell viability (ICRF193 0 nM) was > 45.8 µM and the IC50 cell viability (ICRF193 200 nM) was > 45.8 µM.

For `N[C@@H]1CCCCN(c2c(F)cc3c(=O)c(C(=O)O)cn(C4CC4)c3c2Cl)C1` [Besifloxacin Hydrochloride], the IC50 cell viability (ICRF193 0 nM) was > 45.8 µM and the IC50 cell viability (ICRF193 200 nM) was > 45.8 µM.

In the case of `CNCCc1ccccn1` [Betahistine mesylate], the IC50 cell viability (ICRF193 0 nM) is reported as > 45.8 µM and the IC50 cell viability (ICRF193 200 nM) is reported as > 45.8 µM.

`C[N+](C)(C)CC(=O)O` [Betaine] was tested, and the IC50 cell viability (ICRF193 0 nM) was > 45.8 µM and the IC50 cell viability (ICRF193 200 nM) was > 45.8 µM.

With `CCCC(=O)O[C@]1(C(=O)COC(=O)CC)[C@@H](C)C[C@H]2[C@@H]3CCC4=CC(=O)C=C[C@]4(C)[C@@]3(F)[C@@H](O)C[C@@]21C` [Betamethasone butyrate propionate] the IC50 cell viability (ICRF193 0 nM) was > 45.8 µM and the IC50 cell viability (ICRF193 200 nM) was > 45.8 µM.

`CCCCC(=O)O[C@]1(C(=O)CO)[C@@H](C)C[C@H]2[C@@H]3CCC4=CC(=O)C=C[C@]4(C)[C@@]3(F)[C@@H](O)C[C@@]21C` [Betamethasone valerate] was tested, and the IC50 cell viability (ICRF193 0 nM) was > 45.8 µM and the IC50 cell viability (ICRF193 200 nM) was > 45.8 µM.

In the case of `O=C(O)CCNC(=O)c1ccccc1` [Betamipron], the IC50 cell viability (ICRF193 0 nM) is reported as > 45.8 µM and the IC50 cell viability (ICRF193 200 nM) is reported as > 45.8 µM.
